Laboratory results as given in patent US12566184B2, “Cell-free biosensors to detect creatinine, creatine, and sarcosine” (Georgia Tech Research Corporation, priority 2021, dated 2026).

The molecules below were run on colored probe product (assay: enzymatic creatinine assay with limited chemical probe (Amplex Red): stabilization of probe signal by antioxidants). Details: antioxidants added at different concentrations; chemical probe at low concentration.
Type: biochemical
Description: The existing assay is a purely enzymatic approach that translates the concentration of creatinine into a colorimetric change of varying intensity. It contains two enzymes. The first enzyme, creatininase, catalyzes the conversion of creatinine to creatine. The second enzyme, creatinase, catalyzes creatine to sarcosine. This bioconversion aspect of the assay can be maintained in both of the embodiments. In the existing assay, the sarcosine is then oxidized by sarcosine oxidase, generating hydrogen peroxide in the process. The fluorogenic peroxidase substrate Amplex Red, hereafter referred to as the “probe”, interacts with the generated hydrogen peroxide in the presence of horseradish peroxidase to produce the red-fluorescent product resorufin (see Yamkamon et al. Simultaneous determination of sarcosine and its related metabolites by gas chromatography-tandem mass spectrometry for prostate cancer diagnosis, EXCLI Journal, 2018). Resorufin accumulation leads to a visible color change with a linear response over physiological serum creatinine concentrations. However, there is significant day-to-day variability of unknown origin that affects the amplitude of the output, thus requiring (per manufacturer's instructions) a calibration curve to be run with every sample or batch of samples and complicating field deployment.
In certain embodiments of the disclosed invention, the existing assay can be taken in its entirety and titrated down the amount of probe (fluorogenic peroxidase substrate, Amplex Red) so as to produce a sample-specific calibration curve. The probe concentration that corresponds with specific creatinine concentrations in calibration tests can be first identified using defined chemical mixtures and then implemented in a serum sample matrix to validate the sample-specific calibration curve. […] This method yields a set of reactions to which patient sample can be added, and regardless of the sample levels of creatinine, the calibration spots will all correspond to defined levels of creatinine. The reaction with excess probe can then be visually compared to the calibration spots to determine the creatinine level. In particular, a shift from colorless to red may be useful for a presence-absence or binary diagnostic test. For more accurate monitoring of intensity of color, a plate reader (e.g., spectrophotometer or fluorescence reader) can be used.
Furthermore, in order to reduce the patient-to-patient variability in readouts, also known as matrix effects, where the molecule being measured may appear to be at a different concentration only due to interferences from other constituents of the solution, the inventors identified that the appropriate reagent to limit was not the enzymes in the chemical assay, but rather the chemical probe. However, when the concentration of the chemical probe was reduced to a low level to enable the calibration approach, a side reaction happened where probe that has been transformed from colorless into colored form undergoes a second reaction that brings it back to a colorless form. This made the signal “decay” and thus would lead to an underreporting of the target molecule's concentration.
With `N[C@@H](CCC(=O)N[C@@H](CS)C(=O)NCC(=O)O)C(=O)O` [L-glutathione (reduced)] the “effect on decay of probe signal (transformation of colored probe product into colorless side product)” value (shortened to “effect on decay of probe signal”) was “preventing the decay of probe signal”. With `O=C(O)CC(O)(CC(=O)O)C(=O)O` [citric acid] the “effect on decay of probe signal” value was “preventing the decay of probe signal”. `Cc1c(C)c2c(c(C)c1O)CCC(C)(C(=O)O)O2` (racemic) [(±)-6-Hydroxy-2,5,7,8-tetramethylchromane-2-carboxylic acid] was tested, and the “effect on decay of probe signal” value was “preventing the decay of probe signal”. For `O=c1[nH]c(=O)c2[nH]c(=O)[nH]c2[nH]1` [uric acid], the “effect on decay of probe signal” value was “preventing the decay of probe signal”. In the case of Vitamin E, the “effect on decay of probe signal” value is reported as “preventing the decay of probe signal”. With `O=C1O[C@H]([C@@H](O)CO)C(O)=C1O` [Vitamin C] the “effect on decay of probe signal” value was “preventing the decay of probe signal”.
